In US9359308B2, “Pyrazine kinase inhibitors” (Portola Pharmaceuticals, Inc., priority 2011, dated 2016):

Molecular target: T1, full length active recombinant SYK enzyme (Homo sapiens, UniProt P43405)
T1 construct: full length active recombinant SYK enzyme (Millipore, Calif.); purchased Millipore
Experiment: Inhibition of Syk tyrosine phosphorylation activity (LANCE TR-FRET kinase assay)
Type: biochemical
Conditions: activity in the Syk assays, class symbols
Outline: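 1 nM full-length active recombinant SYK phosphorylated 550 nM biotin-DEEDYESP-OH with 100 μM ATP in 50 mM Tris pH 7.5, 5 mM MgCl2, 1 mM DTT and 3% DMSO for 1 h at room temperature. After EDTA quench, Eu-anti-phosphotyrosine/SA-APC TR-FRET was read after 1 h. IC50s came from non-linear regression.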

Row | SMILES | IC50 [nM]
1 | Cc1nsc(Nc2nc(N[C@@H]3CCCC[C@@H]3N)cnc2C(N)=O)c1-c1cncnc1 [Example 125, 5-(((1R,2S)-2-aminocyclohexyl)amino)-3-((3-methyl-4-(pyrimidin-5-yl)isothiazol-5-yl)amino)pyrazine-2-carboxamide] | > 1000
2 | CN(C)C(=O)c1cc(Nc2nc(N[C@@H]3CCCC[C@@H]3N)cnc2C(N)=O)ccc1F [Example 284, 5-((1R,2S)-2-aminocyclohexylamino)-3-(3-(dimethylcarbamoyl)-4-fluorophenylamino)pyrazine-2-carboxamide] | 100 to 1000
3 | CC[C@@H](Nc1cnc(C(N)=O)c(Nc2snc3ccccc23)n1)C(N)=O [Example 269, (R)-5-(1-amino-1-oxobutan-2-ylamino)-3-(benzo[c]isothiazol-3-ylamino)pyrazine-2-carboxamide] | < 1
4 | Cc1ccc(Nc2nc(N[C@H](CC(F)F)C(N)=O)cnc2C(N)=O)cc1 [Example 123, (R)-5-((1-amino-4,4-difluoro-1-oxobutan-2-yl)amino)-3-(p-tolylamino)pyrazine-2-carboxamide] | 1 to 10
5 | COc1ccc(Nc2nc(N[C@H](CC(C)C)C(N)=O)cnc2C(N)=O)cn1 [Example 312, (R)-5-(1-amino-4-methyl-1-oxopentan-2-ylamino)-3-(6-methoxypyridin-3-ylamino)pyrazine-2-carboxamide] | 1 to 10
6 | CN(C)C(=O)c1ccc(Nc2nc(N[C@@H]3CCCC[C@@H]3N)cnc2C(N)=O)cc1 [Example 277, 5-((1R,2S)-2-aminocyclohexylamino)-3-(4-(dimethylcarbamoyl)phenylamino)pyrazine-2-carboxamide] | 10 to 100
7 | NC(=O)c1ncc(N[C@@H]2CCCC[C@@H]2N)nc1Nc1ccc(C(=O)N2CC(F)(F)C2)nc1 [Example 297, 5-((1R,2S)-2-aminocyclohexylamino)-3-(6-(3,3-difluoroazetidine-1-carbonyl)pyridin-3-ylamino)pyrazine-2-carboxamide] | 1 to 10
8 | CC(C)[C@@H](Nc1cnc(C(N)=O)c(Nc2ccc(S(C)(=O)=O)cc2)n1)C(N)=O [Example 160, (R)-5-(1-amino-3-methyl-1-oxobutan-2-ylamino)-3-(4-(methylsulfonyl)phenylamino)pyrazine-2-carboxamide] | 10 to 100
9 | CC[C@@H](Nc1cnc(C(N)=O)c(Nc2cncc(C)c2)n1)C(N)=O [Example 177, (R)-5-(1-amino-1-oxobutan-2-ylamino)-3-(5-methylpyridin-3-ylamino)pyrazine-2-carboxamide] | 10 to 100
10 | CC(C)C[C@@H](Nc1cnc(C(N)=O)c(Nc2ccnc(N(C)C)c2)n1)C(N)=O [Example 335, (R)-5-(1-amino-4-methyl-1-oxopentan-2-ylamino)-3-(2-(dimethylamino)pyridin-4-ylamino)pyrazine-2-carboxamide] | 1 to 10
11 | Cc1cc(Nc2nc(N[C@@H](C(N)=O)c3ccccc3)cnc2C(N)=O)sn1 [Example 395, (R)-5-(2-amino-2-oxo-1-phenylethylamino)-3-(3-methylisothiazol-5-ylamino)pyrazine-2-carboxamide] | 1 to 10
12 | CCc1ccc(Nc2nc(N[C@@H]3CCCC(F)(F)[C@@H]3N)cnc2C(N)=O)cn1 [Example 343, 5-((1R,2R)-2-amino-3,3-difluorocyclohexylamino)-3-(6-ethylpyridin-3-ylamino)pyrazine-2-carboxamide] | 100 to 1000
13 | NC(=O)c1ncc(N[C@@H]2CCCC(F)(F)[C@@H]2N)nc1Nc1cccc(-n2nccn2)c1 [Example 15, 3-(3-(2H-1,2,3-triazol-2-yl)phenylamino)-5-((1R,2R)-2-amino-3,3-difluorocyclohexylamino)pyrazine-2-carboxamide] | 10 to 100
14 | COc1ncc(Nc2nc(N[C@@H]3CCCC(F)(F)[C@@H]3N)cnc2C(N)=O)cc1C [Example 332, 5-((1R,2R)-2-amino-3,3-difluorocyclohexylamino)-3-(6-methoxy-5-methylpyridin-3-ylamino)pyrazine-2-carboxamide] | 10 to 100
